pIC50: −log10 of the molar value.
Biological target: T1, human recombinant GPR65 (Homo sapiens, UniProt Q8IYL9)
T1 construct: host or cells: 1321N1 human astrocytoma cells (1321N1-hrGPR65)
Test: Human GPR65 cAMP HTRF antagonist assay
Format: cell-based
Settings: not given
Method in brief: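 1321N1 astrocytoma cells stably expressing GPR65 were preincubated with compound for 30 min at room temperature in KRH pH 7.6 with 1 mM IBMX and 200 μM EDTA. They were then stimulated at assay pH 7.2 for 30 min, with controls at pH 7.9. cAMP was read by HTRF (665/620 nm), normalised to controls and fitted by 4-parameter logistic to give IC50.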

T1 sequence (Q8IYL9 whole entry): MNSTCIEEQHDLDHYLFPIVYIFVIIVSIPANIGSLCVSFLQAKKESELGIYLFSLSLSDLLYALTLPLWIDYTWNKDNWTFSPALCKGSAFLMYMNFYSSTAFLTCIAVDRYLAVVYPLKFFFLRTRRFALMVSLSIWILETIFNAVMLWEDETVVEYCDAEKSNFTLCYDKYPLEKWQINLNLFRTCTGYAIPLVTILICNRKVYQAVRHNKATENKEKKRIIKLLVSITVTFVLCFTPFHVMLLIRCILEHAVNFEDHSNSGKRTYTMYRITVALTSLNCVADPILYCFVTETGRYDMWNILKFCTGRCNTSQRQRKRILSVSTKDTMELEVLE

Question: How did the pIC50 turn out when `O=C(Nc1cc(Cl)cc(C(F)(F)F)c1)N1C2CCC1c1ccnc(F)c1C2` (racemic) [Compound 164, (±)-N-(3-Chloro-5-(trifluoromethyl)phenyl)-1-fluoro-6,7,8,9-tetrahydro-5H-5,8-epiminocyclohepta[c]pyridine-10-carboxamide] was run?
Answer: > 6.30

Question: How did the pIC50 turn out when `O=C(Nc1ccc(Cl)c(Cl)c1)N1C2CCC1c1ccnc(F)c1C2` (racemic) [Compound 109, (±)-N-(3,4-Dichlorophenyl)-1-fluoro-6,7,8,9-tetrahydro-5H-5,8-epiminocyclohepta[c]pyridine-10-carboxamide] was run?
Answer: > 6.30

Question: `O=C(Nc1cc(C(F)(F)F)c(Cl)cc1F)N1[C@H]2CC[C@@H]1c1c[nH]c(=O)cc1C2` [Compound 129, (6S,9R)-N-(4-Chloro-2-fluoro-5-(trifluoromethyl)phenyl)-3-oxo-3,5,6,7,8,9-hexahydro-2H-6,9-epiminocyclohepta[c]pyridine-10-carboxamide] was tested. Which pIC50 did it give?
Answer: > 6.30

Question: How did the pIC50 turn out when `O=C(Nc1ccc(Cl)c(C(F)(F)F)c1)N1[C@H]2CC[C@@H]1c1cncnc1C2` [Compound 42, (5R,8S)-N-(4-Chloro-3-(trifluoromethyl)phenyl)-6,7,8,9-tetrahydro-5H-5,8-epiminocyclohepta[d]pyrimidine-10-carboxamide] was run?
Answer: > 6.30

Question: With `O=C(Nc1ccc(Cl)c(Cl)c1)N1C2CCC1c1c[nH]c(=O)cc1C2` (racemic) [Compound 76, (±)-N-(3,4-Dichlorophenyl)-3-oxo-3,5,6,7,8,9-hexahydro-2H-6,9-epiminocyclohepta[c]pyridine-10-carboxamide] as the compound, how does the pIC50 read?
Answer: > 6.30

Question: With `O=C(Nc1ccc(-c2ccccc2)cc1)N1[C@H]2CC[C@@H]1c1c[nH]c(=O)cc1C2` [Compound 191, (6S,9R)-N-([1,1′-Biphenyl]-4-yl)-3-oxo-3,5,6,7,8,9-hexahydro-2H-6,9-epiminocyclohepta[c]pyridine-10-carboxamide] as the compound, how does the pIC50 read?
Answer: > 6.30

Question: How did the pIC50 turn out when `O=C(Nc1ccc(Br)c(Br)c1)N1C2CCC1c1cncnc1C2` (racemic) [Compound 16, (±)-N-(3,4-Dibromophenyl)-6.7,8,9-tetrahydro-5H-5,8-epiminocyclohepta[d]pyrimidine-10-carboxamide] was run?
Answer: > 6.30

Question: How did the pIC50 turn out when `O=C(Nc1ccc(Cl)c(Cl)c1)N1C2CCC1c1cnc(F)cc1C2` (racemic) [Compound 67, (±)-N-(3,4-Dichlorophenyl)-3-fluoro-6,7,8,9-tetrahydro-5H-6,9-epiminocyclohepta[c]pyridine-10-carboxamide] was run?
Answer: 5.30 to 6.30

Question: How did the pIC50 turn out when `O=C(Nc1cc(C(F)(F)F)c(Cl)cc1F)N1[C@H]2CC[C@@H]1c1ccnc(F)c1C2` [Compound 126, (5R,8S)-N-(4-Chloro-2-fluoro-5-(trifluoromethyl)phenyl)-1-fluoro-6,7,8,9-tetrahydro-5H-5,8-epiminocyclohepta[c]pyridine-10-carboxamide] was run?
Answer: > 6.30

Question: `O=C(Nc1cc(Cl)c(C(F)(F)F)cc1F)N1C2CCC1c1c[nH]c(=O)c(F)c1C2` (racemic) [Compound 138, (±)-N-(5-Chloro-2-fluoro-4-(trifluoromethyl)phenyl)-4-fluoro-3-oxo-3,5,6,7,8,9-hexahydro-2H-6,9-epiminocyclohepta[c]pyridine-10-carboxamide] was tested. Which pIC50 did it give?
Answer: > 6.30

Question: `O=C(Nc1ccc(C(F)(F)F)c(Cl)c1)N1C2CCC1c1cnc(F)nc1C2` (racemic) [Compound 45, (±)-N-(3-Chloro-4-(trifluoromethyl)phenyl)-2-fluoro-6,7,8,9-tetrahydro-5H-5,8-epiminocyclohepta[d]pyrimidine-10-carboxamide] was tested. Which pIC50 did it give?
Answer: > 6.30

Question: With `O=C(Nc1cc(Cl)ccc1F)N1C2CCC1c1ccnc(F)c1C2` (racemic) [Compound 174, (±)-N-(5-Chloro-2-fluorophenyl)-1-fluoro-6,7,8,9-tetrahydro-5H-5,8-epiminocyclohepta[c]pyridine-10-carboxamide] as the compound, how does the pIC50 read?
Answer: > 6.30

Same assay, conditions: 1321N1-hrGPR65 cells, assay pH 7.2, cAMP HTRF; read-out: hGPR65 IC50 (activity class)

Question: `O=C(Nc1cc(Cl)c(Cl)cc1F)N1[C@H]2CC[C@@H]1c1ccnc(C(F)(F)F)c1C2` [Compound 200, (5R,8S)-N-(4,5-dichloro-2-fluorophenyl)-1-(trifluoromethyl)-6,7,8,9-tetrahydro-5H-5,8-epiminocyclohepta[c]pyridine-10-carboxamide] was tested. Which pIC50 did it give?
Answer: 5.30 to 6.30

Question: `O=C(Nc1cc(C(F)(F)F)cc(C(F)(F)F)c1)N1C2CCC1c1ccnc(F)c1C2` (racemic) [Compound 159, (±)-N-(3,5-Bis(trifluoromethyl)phenyl)-1-fluoro-6,7,8,9-tetrahydro-5H-5,8-epiminocyclohepta[c]pyridine-10-carboxamide] was tested. Which pIC50 did it give?
Answer: 5.30 to 6.30

Question: `O=C(Nc1ccc(Cl)c(Cl)c1)N1C2CCC1c1cnc(F)c(F)c1C2` (racemic) [Compound 135, (±)-N-(3,4-Dichlorophenyl)-3,4-difluoro-6,7,8,9-tetrahydro-5H-6,9-epiminocyclohepta[c]pyridine-10-carboxamide] was tested. Which pIC50 did it give?
Answer: 5.30 to 6.30

Question: With `O=C(Nc1ccc(Cl)c(C(F)(F)F)c1)N1C2CCC1c1cnc(-c3ccccc3)nc1C2` (racemic) [Compound 28, (±)-N-(4-Chloro-3-(trifluoromethyl)phenyl)-2-phenyl-6,7,8,9-tetrahydro-5H-5,8-epiminocyclohepta[d]pyrimidine-10-carboxamide] as the compound, how does the pIC50 read?
Answer: < 5.30

Question: `O=C(Nc1ccc(Cl)c(Cl)c1)N1C2CCC1c1cnc(Br)cc1C2` (racemic) [Compound 99, (±)-3-Bromo-N-(3,4-dichlorophenyl)-6,7,8,9-tetrahydro-5H-6,9-epiminocyclohepta[c]pyridine-10-carboxamide] was tested. Which pIC50 did it give?
Answer: < 5.30

Question: With `O=C(Nc1cc(Cl)c(C(F)(F)F)cc1F)N1C2CCC1c1cnncc1C2` (racemic) [Compound 194, (±)-N-(5-Chloro-2-fluoro-4-(trifluoromethyl)phenyl)-6,7,8,9-tetrahydro-5H-5,8-epiminocyclohepta[d]pyridazine-10-carboxamide] as the compound, how does the pIC50 read?
Answer: 5.30 to 6.30

Question: With `O=C(Nc1ccc(Cl)c(Cl)c1)N1[C@H]2CC[C@@H]1c1cnccc1C2` [Compound 111, (6S,9R)-N-(3,4-Dichlorophenyl)-6,7,8,9-tetrahydro-5H-6,9-epiminocycloheptan[c]pyridine-10-carboxamide] as the compound, how does the pIC50 read?
Answer: 5.30 to 6.30

Question: How did the pIC50 turn out when `O=C(Nc1ccc(Cl)c(Br)c1)N1C2CCC1c1cncnc1C2` (racemic) [Compound 12, (±)-N-(3-Bromo-4-chlorophenyl)-6,7,8,9-tetrahydro-5H-5,8-epiminocyclohepta[d]pyrimidine-10-carboxamide] was run?
Answer: 5.30 to 6.30

Question: With `O=C(Nc1cc(F)cc(F)c1)N1C2CCC1c1ccnc(F)c1C2` (racemic) [Compound 173, (±)-N-(3,5-Difluorophenyl)-1-fluoro-6,7,8,9-tetrahydro-5H-5,8-epiminocyclohepta[c]pyridine-10-carboxamide] as the compound, how does the pIC50 read?
Answer: 5.30 to 6.30

Question: How did the pIC50 turn out when `O=C(Nc1ccc(Cl)c(Cl)c1)N1[C@@H]2CC[C@H]1c1cnccc1C2` [Compound 112, (6R,9S)-N-(3,4-Dichlorophenyl)-6,7,8,9-tetrahydro-5H-6,9-epiminocyclohepta[c]pyridine-10-carboxamide] was run?
Answer: < 5.30

Question: With `COc1cc(NC(=O)N2C3CCC2c2ccnc(F)c2C3)ccc1-c1cnco1` (racemic) [Compound 152, (±)-1-Fluoro-N-(3-methoxy-4-(oxazol-5-yl)phenyl)-6,7,8,9-tetrahydro-5H-5,8-epiminocyclohepta[c]pyridine-10-carboxamide] as the compound, how does the pIC50 read?
Answer: 5.30 to 6.30

Question: How did the pIC50 turn out when `O=C(Nc1ccc(C(F)(F)F)cc1)N1C2CCC1c1cncnc1C2` (racemic) [Compound 1, (±)-N-(4-(Trifluoromethyl)phenyl)-6,7,8,9-tetrahydro-5H-5,8-epiminocyclohepta[d]pyrimidine-10-carboxamide] was run?
Answer: 5.30 to 6.30

Question: `O=C(Nc1ccc(Cl)c(Cl)c1)N1[C@@H]2CC[C@H]1[C@H](F)c1ncncc12` [Compound 115, (5R,8S,9S)-N-(3,4-Dichlorophenyl)-9-fluoro-6,7,8,9-tetrahydro-5H-5,8-epiminocyclohepta[d]pyrimidine-10-carboxamide] was tested. Which pIC50 did it give?
Answer: 5.30 to 6.30

Question: How did the pIC50 turn out when `O=C(Nc1ccc(C(F)(F)F)c(Cl)c1)N1C2CCC1c1cnc(-c3ccccc3)nc1C2` (racemic) [Compound 29, (±)-N-(3-Chloro-4-(trifluoromethyl)phenyl)-2-phenyl-6,7,8,9-tetrahydro-5H-5,8-epiminocyclohepta[d]pyrimidine-10-carboxamide] was run?
Answer: 5.30 to 6.30

Question: How did the pIC50 turn out when `O=C(Nc1ccc(Cl)c(Cl)c1)N1C2CCC1c1ccccc1C2` (racemic) [Compound 34, (±)-N-(3,4-Dichlorophenyl)-6,7,8,9-tetrahydro-5H-5,8-epiminobenzo[7]annulene-10-carboxamide] was run?
Answer: 5.30 to 6.30

Question: With `O=C(Nc1ccc(C(F)(F)F)c(Cl)c1)N1C2CCC1c1cc(F)ccc1C2` (racemic) [Compound 81, (±)-N-(3-Chloro-4-(trifluoromethyl)phenyl)-3-fluoro-6,7,8,9-tetrahydro-5H-5,8-epiminobenzo[7]annulene-10-carboxamide] as the compound, how does the pIC50 read?
Answer: 5.30 to 6.30

Question: `COC(=O)c1ccc(NC(=O)N2[C@H]3CC[C@@H]2c2c[nH]c(=O)cc2C3)cc1Cl` [Compound 130, Methyl 2-chloro-4-((6S,9R)-3-oxo-3,5,6,7,8,9-hexahydro-2H-6,9-epiminocyclohepta[c]pyridine-10-carboxamido)benzoate] was tested. Which pIC50 did it give?
Answer: 5.30 to 6.30

Question: With `O=C(Nc1ccc(F)cc1F)N1C2CCC1c1ccnc(F)c1C2` (racemic) [Compound 162, (±)-N-(2,4-Difluorophenyl)-1-fluoro-6,7,8,9-tetrahydro-5H-5,8-epiminocyclohepta[c]pyridin-10-carboxamide] as the compound, how does the pIC50 read?
Answer: 5.30 to 6.30

Question: `O=C(Nc1ccc(C(F)(F)F)c(Cl)c1)N1C2CCC1c1ccc(Cl)cc1C2` (racemic) [Compound 71, (±)-2-Chloro-N-(3-chloro-4-(trifluoromethyl)phenyl)-6,7,8,9-tetrahydro-5H-5,8-epiminobenzo[7]annulene-10-carboxamide] was tested. Which pIC50 did it give?
Answer: 5.30 to 6.30

Question: `Nc1cc2c(cn1)CC1CCC2N1C(=O)Nc1ccc(Cl)c(Cl)c1` (racemic) [Compound 64, (±)-3-Amino-N-(3,4-dichlorophenyl)-6,7,8,9-tetrahydro-5H-5,8-epiminocyclohepta[c]pyridine-10-carboxamide] was tested. Which pIC50 did it give?
Answer: 5.30 to 6.30

Source: patent US20230373989A1, “N-PHENYLAMINOCARBONYL PYRIDINO-, PYRIMIDINO AND BENZO-TROPANES AS MODULATORS OF GPR65” (PATHIOS THERAPEUTICS LIMITED, priority 2020, published 2023)
